Experimental data published in US11173144B2, “Adrenergic receptor modulating compounds and methods of using the same” (The Board of Trustees of the Leland Stanford Junior …, priority 2016, dated 2021).

Tests used:
ADRB1 [1] = molecular target: T1, ADRB1 (Homo sapiens (Human), UniProt P08588); experiment: cAMP assay (homogenous time-resolved fluorescence) in HEK-293 cells stably expressing human recombinant ADRB1; type: cell-based; conditions: Table 4
Procedure: Pharmacological effects of compounds at the cAMP pathway mediated by ADRB1 are evaluated by measuring cAMP production using the homogenous time-resolved fluorescence detection method with HEK-293 cells stably expressing human recombinant ADRB1. Briefly, cells are suspended in HBSS buffer completed with 20 mM HEPES (pH 7.4) and 500 μM IBMX (3-isobutyl-1-methylxanthine) and distributed at a density of 3×10^3 cells/well. […] The results are expressed as a percent of the maximum efficacy achieved with isoproterenol. Pharmacological effects of compounds at the cAMP pathway mediated by ADRB2 and ADRB3 are measured as described above using CHO cells stably expressing human recombinant ADRB2 and human SK-N-MC neurotumor cells endogenously expressing ADRB3, respectively.
After 30 minute incubation with compounds, the cells are lysed and the fluorescence donor (Europium-chelated-labeled cAMP tracer; Eu-cAMP tracer) and fluorescence acceptor (cAMP-specific monoclonal antibodies labeled with the ULight™ dye) are added. […] The results are expressed as a percent of the control response to 10 μM isoproterenol. For subtype selectivity determination, same procedure is performed using Chinese hamster ovary (CHO) cells stably expressing human β2-adrenergic receptors or SK-N-MC human neuroblastoma cell line expressing β3-adrenergic receptors.
ADRB1 EC50 from functional assay (nM)^a, Determined using the homogenous time-resolved fluorescence detection method with HEK-293 cells stably expressing human recombinant ADRB1. ADRB2 IC50 from binding assay(nM)^b, Determined using the Tag-lite Adrenoceptor Beta2 receptor ligand binding assay.

ADRB1 [2] = molecular target: T1, ADRB1; experiment: β-arrestin assay (PathHunter enzyme fragment complementation, CHO-K1-ADRB1 cells); type: cell-based; conditions: Table 4
Procedure: Pharmacological activity of compounds in the β-arrestin pathway mediated by ADRB1 are evaluated using an enzyme fragment complementation method with a β-galactosidase functional reporter. An engineered CHO-K1-ADRB1 PathHunter cell line (DiscoveRx) is used in the assay. In this cell line, enzyme acceptor (β-galactosidase fragment) is fused to β-arrestin and enzyme donor (β-galactosidase fragment) is fused to the ADRB1. Thus, activation of the ADRB1 stimulates binding of β-arrestin to the ProLink-tagged ADRB1 and forces complementation of the two enzyme fragments, resulting in the formation of an active β-galactosidase enzyme. Briefly, CHO-K1-ADRB1 PathHunter cell lines are plated in a total volume of 20 μL cell plating reagent (DiscoveRx, 93-0563R0A) at a density of 2,500 cells/well into 384 well microplates and incubated overnight at 37° C. in 5% CO2. […] Chemiluminescent signal is then read with a PerkinElmer Envision™ instrument. The results are expressed as a percent of the maximum efficacy achieved with isoproterenol.
Effects of compounds on β-arrestin signaling pathways are determined using CHO cells stably expressing human β1-adrenergic receptors or human β2-adrenergic receptors with PathHunter® β-Arrestin GPCR assay system (DiscoveRx). In this system, adrenergic receptor is fused in frame with the small enzyme fragment ProLink™ and co-expressed in cell stably expressing at fusion protein of β-arrestin and the larger, N-terminal deletion mutant of β-galactosidase enzyme. Activation of the adrenergic receptor stimulates binding of β-arrestin to the ProLink-tagged receptor and forces complementation of the two enzyme fragments, resulting in the formation of an active β-gal enzyme. This interaction leads to an increase in enzyme activity that can be measured using chemiluminescent detection reagents. The effects of compounds on β-arrestin signaling pathways are determined 90 minutes after incubating the cells with the test compounds.

5-HT2B = 5-HT2B (Homo sapiens (Human), UniProt P41595); experiment: CNS target panel screen: 5-HT2B; type: binding
Sequence of 5-HT2B (P41595 whole entry, species assumed): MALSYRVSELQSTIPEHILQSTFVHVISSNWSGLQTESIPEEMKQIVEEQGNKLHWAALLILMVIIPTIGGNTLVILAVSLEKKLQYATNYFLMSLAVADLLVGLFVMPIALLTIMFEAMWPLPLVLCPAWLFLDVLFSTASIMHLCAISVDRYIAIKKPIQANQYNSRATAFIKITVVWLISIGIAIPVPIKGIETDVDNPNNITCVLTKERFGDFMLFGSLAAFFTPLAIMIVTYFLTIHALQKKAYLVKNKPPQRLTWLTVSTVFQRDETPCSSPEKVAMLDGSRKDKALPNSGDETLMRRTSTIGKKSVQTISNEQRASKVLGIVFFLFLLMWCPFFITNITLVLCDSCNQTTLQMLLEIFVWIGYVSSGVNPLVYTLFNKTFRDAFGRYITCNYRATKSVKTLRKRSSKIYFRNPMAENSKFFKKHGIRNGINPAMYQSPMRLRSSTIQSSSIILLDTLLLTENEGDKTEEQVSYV
Text: (§1) From a drug development perspective, characterizing the off-target effects of lead compounds is an important issue, as interactions with off-target molecules may lead to undesirable side effects. Thus we screened xamoterol (S) and the key compound compound 43 against a panel of CNS relevant targets, including G-protein coupled receptor and transporters.

D3 dopaminergic receptor = D3 dopaminergic receptor (Homo sapiens (Human), UniProt P35462); experiment: CNS target panel screen: D3 dopaminergic receptor; type: binding
Sequence of D3 dopaminergic receptor (P35462 whole entry): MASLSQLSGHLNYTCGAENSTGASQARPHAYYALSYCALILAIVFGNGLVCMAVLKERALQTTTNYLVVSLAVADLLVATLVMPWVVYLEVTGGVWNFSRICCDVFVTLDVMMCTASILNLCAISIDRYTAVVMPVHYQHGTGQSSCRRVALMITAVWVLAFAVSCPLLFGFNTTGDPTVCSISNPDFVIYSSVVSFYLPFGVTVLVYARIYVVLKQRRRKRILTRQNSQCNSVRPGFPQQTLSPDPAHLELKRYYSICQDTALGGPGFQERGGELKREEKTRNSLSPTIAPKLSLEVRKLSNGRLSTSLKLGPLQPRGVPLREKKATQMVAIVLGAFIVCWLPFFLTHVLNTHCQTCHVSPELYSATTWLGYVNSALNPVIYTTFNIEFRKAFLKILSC
Text: as §1, with “transporters. […].” for “transporters.”

[3] = Microsomal stability assay, mouse; conditions: 0.1 uM

T1 sequence (P08588 whole entry): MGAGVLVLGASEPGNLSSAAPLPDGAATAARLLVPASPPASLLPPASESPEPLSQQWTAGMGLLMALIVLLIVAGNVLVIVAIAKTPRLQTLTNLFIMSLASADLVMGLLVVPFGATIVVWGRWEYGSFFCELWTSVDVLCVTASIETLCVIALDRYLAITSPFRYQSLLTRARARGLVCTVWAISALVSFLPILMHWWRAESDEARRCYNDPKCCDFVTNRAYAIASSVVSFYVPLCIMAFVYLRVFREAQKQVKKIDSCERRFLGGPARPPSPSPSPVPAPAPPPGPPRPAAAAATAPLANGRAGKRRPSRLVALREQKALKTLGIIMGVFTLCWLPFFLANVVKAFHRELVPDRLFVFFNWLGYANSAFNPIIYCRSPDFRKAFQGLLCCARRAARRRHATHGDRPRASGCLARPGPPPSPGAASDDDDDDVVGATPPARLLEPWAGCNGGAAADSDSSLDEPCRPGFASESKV

COc1ccccc1OCCNC[C@H](O)COc1ccc(O)cc1 [Compound 43]
Emax (ADRB1 [1]; HEK293, 0.5 h, percent efficacy compared to the maximum response achieved with isoproterenol, read-out: cAMP pathway % Iso max): 83.3 ± 15.7%
EC50 (ADRB1 [1]; read-out: cAMP pathway ADRB1 EC50): 10 to 100 nM
β-arrestin pathway % Iso max (ADRB1 [2]; percent efficacy compared to the maximum response achieved with isoproterenol): 18.3%
EC50 (ADRB1 [2]; read-out: β-arrestin pathway ADRB1 EC50): 10 to 100 nM
affinity for 5-HT2B (5-HT2B): significant affinity
affinity for D3 dopaminergic receptor (D3 dopaminergic receptor): significant affinity
compound remaining after 60 minutes in mouse liver microsomes [3]: 62.8%
